Measurements published in patent US20240350444A1, “COMBINATION COMPRISING DECANOIC ACID FOR THE TREATMENT OF EPILEPSY” (priority 2017, published 2024).
pIC50: −log10 of the molar value. Read-outs that look alike come from different tables or passages of the source.

Key:
AMPA receptor GluA1/2 = molecular target: T1, AMPA receptor GluA1/2 (Homo sapiens, UniProt P42261+P42262); experiment: Direct AMPA receptor current recording (TEVC) in Xenopus oocytes, GluA1/2; format: cell-based
T1 construct: expressed in transfected cells; host or cells: Xenopus laevis oocytes
Method: (§1) FIG. 1. AMPA (GluA2/3, GluA1/2, or GluA3) receptors were expressed in Xenopus oocytes, and perfused with L-glutamate (100 μM) and the indicated compound, unless stated otherwise. Currents were recorded using TEVC. (A) Representative current traces of inhibitory dose-response curves for perampanel on GluA1/2 and GluA2/3 receptors. (B) Dose-response curve showing inhibition of GluA1/2 (N=10) and GluA2/3 (N=6) by perampanel, with respective IC50 values shown in bar graph inset. (C) Effect of varying perampanel concentrations on glutamate EC50 against GluA1/2. Points were normalised to maximal response and represent the mean and SEM of 6 (glutamate only) and 5 (with 2.5 μM and 5 μM perampanel). (D) Quantitative representation of mean currents recorded in wildtype and mutant GluA3 normalised to maximal responses in the presence of perampanel (N=5 for wildtype and N=6 for mutant) and decanoic acid, DA (N=4 for both wildtype and mutant).
(§2) FIG. 2. AMPA (GluA2/3, GluA 1/2, or GluA3) receptors were expressed in Xenopus oocytes, and perfused with L-glutamate (100 μM) and the indicated compound, unless stated otherwise. Currents were recorded using TEVC. (A) Representative current traces of inhibitory dose-response curves for decanoic acid (DA) on GluA2/3 receptors at 1 μM or 4 μM perampanel. Dose-response inhibition curves for decanoic acid at 1μM or 4 μM perampanel on (B) GluA2/3 and (C) GluA1/2 receptors. Points were normalised to maximal response to L-glutamate and solvent, 1 μM perampanel or 4 μM perampanel and represent means and SEM of 8 to 13 readings. Inserts show respective ICs50 values in the presence of perampanel. (D) Representative current traces of inhibitory dose-response curves for perampanel on GluA2/3 receptors at 50 μM to 100 μM decanoic acid. (E), (F) Dose-response inhibition curves for perampanel at 50 μM and 100 μM DA on GluA2/3 (E) and GluA1/2 (F) receptors. Points were normalised to maximal response to L-glutamate with solvent, 50 μM and 100 μM DA and represent means and SEM of 8 to 13 readings. Inserts show respective perampanel IC50 values in the presence of DA. Scale bars correspond to 150 nA in GluA1/2 and 30 nA in GluA2/3 (A), 50 nA (E) and 200 nA (H). Scale bars correspond to 60 nA for +1 μM perampanel and 75 nA for +4 μM perampanel (K) and 200 nA (L).
(§3) As previously described (Chang et al. 2016. Brain 139: 431-43), AMPA receptor subunits (GluA2/3, GluA1/2, and GluA3) were expressed in Xenopus oocytes and agonist elicited inward currents were used to measure inhibition by decanoic acid (Sigma Ltd) and perampanel (Apexmol Technology Co. Ltd).

[1] = molecular target: T2, wild type AMPA receptor (GluA3) (Homo sapiens, UniProt P42263); experiment: Direct AMPA receptor current recording in Xenopus oocytes, wild type GluA3; format: cell-based
T2 construct: expressed in transfected cells; host or cells: Xenopus oocytes
Method: as §1, §3
(§4) To confirm this, we expressed a GYKI resistant subunit GluA3 mutant (11) and assessed it for sensitivity to perampanel and decanoic acid (FIG. 1C).

AMPA receptor GluA2/3 = molecular target: T3, AMPA receptor GluA2/3 (Homo sapiens, UniProt P42262+P42263); experiment: Direct AMPA receptor current recording (TEVC) in Xenopus oocytes, GluA2/3; format: cell-based
T3 construct: expressed in transfected cells; host or cells: Xenopus laevis oocytes
Method: as §1, §2, §3

[2] = test system: PTZ-induced epileptiform activity in rat entorhinal cortex-hippocampal slices; experiment: Rat hippocampal PTZ seizure-like activity analysis; format: cell-based; conditions: for seizure activity: modelled data; for pIC50: Rattus norvegicus, read-out: decanoic acid IC50 for epileptiform activity
Method: FIG. 3. (A) Epileptiform (paroxysmal) activity was induced in rat entorhinal cortex-hippocampal slices by application of PTZ (2 mM) and [K+] (to 6 mM), and recorded over time at fixed perampanel and increasing decanoic acid (DA) concentration. (B) Epileptiform activity was normalised to activity in absence or presence of each concentration (100 nM and 500 nM) and shown at variable DA concentrations. […] Data is derived from at least three biological repeats.
Seizure-like activity was induced, as previously described (Chang et al. 2016. Brain 139: 431-43), in rat entorhinal cortex-hippocamal slices by application of PTZ (2 mM) to the perfusate and [K+] was increased (to 6 mM). Perampanel (100 or 500 nM) or DMSO was applied to the perfusate, and then decanoic acid (Sigma Ltd) was applied at increasing concentrations at 10 minutes intervals. The change in the frequency of the discharges was measured at minute intervals, averaged every 5 minutes, and normalised to baseline. Data were analyzed using Origin (OriginLab Corporation, MA USA) and SPSS (IBM, UK) with IC50 values calculated from fitting data values with a Hill plot. Statistical analysis was performed using a one-way ANOVA with two-way Dunnett's post hoc test.

[3] = test system: GYKI resistant subunit GluA3 mutant; experiment: Direct AMPA receptor current recording in Xenopus oocytes, GYKI resistant GluA3 mutant; format: cell-based
Method: as §1, §3, §4

[4] = Decanoic acid levels in patients on the MCT ketogenic diet; format: in vivo; conditions: extrapolating the rodent ratio to human brain
[5] = patients on the MCT ketogenic diet; cited from earlier work
[6] = rodent models; cited from earlier work
[7] = IC50, inhibition of AMPA receptor currents, perampanel alone, currents elicited by glutamate, Xenopus oocytes (FIG. 1B)
[8] = read-out: glutamate evoked maximal response reduced to

T3 sequence (P42262 22-883 limits assumed): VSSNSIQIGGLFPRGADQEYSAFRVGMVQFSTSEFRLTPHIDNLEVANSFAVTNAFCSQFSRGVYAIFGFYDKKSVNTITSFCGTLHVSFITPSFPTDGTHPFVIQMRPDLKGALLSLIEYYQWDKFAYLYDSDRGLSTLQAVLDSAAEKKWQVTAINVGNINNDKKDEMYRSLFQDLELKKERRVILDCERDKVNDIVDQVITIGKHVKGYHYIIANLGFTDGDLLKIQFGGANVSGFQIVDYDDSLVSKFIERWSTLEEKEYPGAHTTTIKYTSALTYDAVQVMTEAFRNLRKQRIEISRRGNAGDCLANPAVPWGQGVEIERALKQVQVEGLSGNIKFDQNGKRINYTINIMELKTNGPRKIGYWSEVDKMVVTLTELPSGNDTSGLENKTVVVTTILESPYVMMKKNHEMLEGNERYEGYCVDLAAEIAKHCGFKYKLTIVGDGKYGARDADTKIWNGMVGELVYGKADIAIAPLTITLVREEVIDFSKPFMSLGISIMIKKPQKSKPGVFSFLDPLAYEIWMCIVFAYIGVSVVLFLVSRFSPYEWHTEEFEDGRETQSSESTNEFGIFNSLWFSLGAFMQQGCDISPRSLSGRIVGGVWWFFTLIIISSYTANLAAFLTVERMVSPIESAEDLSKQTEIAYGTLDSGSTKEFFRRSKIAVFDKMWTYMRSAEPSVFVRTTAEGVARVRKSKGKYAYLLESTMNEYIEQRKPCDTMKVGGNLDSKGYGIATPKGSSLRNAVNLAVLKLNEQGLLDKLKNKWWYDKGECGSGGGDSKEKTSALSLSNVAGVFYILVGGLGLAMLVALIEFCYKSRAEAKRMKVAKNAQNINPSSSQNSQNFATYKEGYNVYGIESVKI
T3 sequence (P42263 29-894): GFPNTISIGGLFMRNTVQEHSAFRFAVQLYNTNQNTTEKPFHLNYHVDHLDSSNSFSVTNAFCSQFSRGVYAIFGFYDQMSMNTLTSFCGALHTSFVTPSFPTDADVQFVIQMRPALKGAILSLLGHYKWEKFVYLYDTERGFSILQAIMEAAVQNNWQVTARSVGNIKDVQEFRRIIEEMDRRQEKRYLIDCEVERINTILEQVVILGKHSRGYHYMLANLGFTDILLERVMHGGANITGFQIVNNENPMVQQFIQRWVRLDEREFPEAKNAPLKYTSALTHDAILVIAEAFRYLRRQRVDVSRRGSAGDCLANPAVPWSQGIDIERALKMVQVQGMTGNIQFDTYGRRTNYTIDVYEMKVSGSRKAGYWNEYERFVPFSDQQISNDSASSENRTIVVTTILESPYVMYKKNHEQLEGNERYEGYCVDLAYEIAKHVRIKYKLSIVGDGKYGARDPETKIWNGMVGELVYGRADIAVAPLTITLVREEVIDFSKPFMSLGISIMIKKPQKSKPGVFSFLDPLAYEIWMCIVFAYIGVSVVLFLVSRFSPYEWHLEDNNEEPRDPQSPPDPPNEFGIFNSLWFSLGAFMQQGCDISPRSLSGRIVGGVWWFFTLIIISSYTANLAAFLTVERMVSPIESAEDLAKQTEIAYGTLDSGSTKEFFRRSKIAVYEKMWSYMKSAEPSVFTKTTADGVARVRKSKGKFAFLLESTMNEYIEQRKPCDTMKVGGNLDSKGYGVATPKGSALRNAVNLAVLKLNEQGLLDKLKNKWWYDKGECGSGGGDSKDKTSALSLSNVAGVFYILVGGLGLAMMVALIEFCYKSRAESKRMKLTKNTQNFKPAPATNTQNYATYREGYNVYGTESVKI
T1 sequence (P42261 19-906): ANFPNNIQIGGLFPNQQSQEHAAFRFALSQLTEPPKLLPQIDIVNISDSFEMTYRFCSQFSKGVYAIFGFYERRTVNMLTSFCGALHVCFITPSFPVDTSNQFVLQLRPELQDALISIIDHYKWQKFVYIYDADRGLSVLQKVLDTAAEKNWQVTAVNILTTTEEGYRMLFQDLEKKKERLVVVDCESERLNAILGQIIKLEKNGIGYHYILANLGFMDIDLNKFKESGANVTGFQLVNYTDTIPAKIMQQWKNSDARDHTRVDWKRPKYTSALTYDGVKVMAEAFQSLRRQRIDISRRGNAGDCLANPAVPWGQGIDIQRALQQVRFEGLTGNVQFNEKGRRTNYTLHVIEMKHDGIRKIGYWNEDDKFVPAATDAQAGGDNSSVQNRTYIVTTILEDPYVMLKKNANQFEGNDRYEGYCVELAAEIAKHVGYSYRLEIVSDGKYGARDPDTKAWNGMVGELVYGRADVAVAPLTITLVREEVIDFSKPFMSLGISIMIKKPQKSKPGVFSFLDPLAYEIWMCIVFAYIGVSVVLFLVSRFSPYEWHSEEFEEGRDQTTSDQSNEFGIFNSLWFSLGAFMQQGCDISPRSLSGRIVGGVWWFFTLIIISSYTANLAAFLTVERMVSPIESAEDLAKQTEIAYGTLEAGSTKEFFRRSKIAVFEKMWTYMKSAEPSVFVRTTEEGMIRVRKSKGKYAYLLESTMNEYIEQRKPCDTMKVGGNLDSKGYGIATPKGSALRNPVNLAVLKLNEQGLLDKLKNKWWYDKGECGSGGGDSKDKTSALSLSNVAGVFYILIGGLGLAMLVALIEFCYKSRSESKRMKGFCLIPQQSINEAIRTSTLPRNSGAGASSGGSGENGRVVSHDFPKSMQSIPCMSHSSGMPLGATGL
T1 sequence (P42262 22-883 limits assumed): as the sequence (P42262 22-883 limits assumed) above
T2 sequence (P42263 29-894, species assumed): as the sequence (P42263 29-894) above

Which results are given for `N#Cc1ccccc1-c1cc(-c2ccccn2)cn(-c2ccccc2)c1=O` [perampanel, 3-(2-Cyanophenyl)-5-(2-pyridyl)-1-phenyl-1,2-dihydropyridin-2-one]?
pIC50 (AMPA receptor GluA1/2; [7]): 5.95; reduction in the IC50 value for perampanel (AMPA receptor GluA1/2; in combination with decanoic acid, GluA1/2): ~3 fold; manner of inhibition of AMPA receptor currents (AMPA receptor GluA1/2; increasing glutamate concentrations not reversing inhibition (FIG. 1C)): non-competitive; pIC50 (AMPA receptor GluA1/2; perampanel IC50 in GluA1/2): 5.68; pIC50 (AMPA receptor GluA1/2; perampanel IC50 in GluA1/2, in the absence of DA (FIG. 2F)): 5.21; pIC50 (AMPA receptor GluA1/2; perampanel IC50 in GluA1/2, in the presence of DA): 5.66; Emax at 2.5 µM (AMPA receptor GluA1/2; [8]): 75.2%; Emax at 5 µM (AMPA receptor GluA1/2; [8]): 16.9%; reduction of glutamate-induced currents ([1]; perampanel 20 μM): 94.7%; pIC50 (AMPA receptor GluA2/3; [7]): 5.82; reduction in the IC50 value for perampanel (AMPA receptor GluA2/3; in combination with decanoic acid, GluA2/3): ~3 fold; pIC50 (AMPA receptor GluA2/3; perampanel IC50 in GluA2/3, in the absence of DA (FIG. 2E)): 5.29; pIC50 (AMPA receptor GluA2/3; perampanel IC50 in GluA2/3, in the presence of DA at 50 mM): 5.77; pIC50 (AMPA receptor GluA2/3; perampanel IC50 in GluA2/3, in the presence of DA at 100 Mm): 5.80; increase in the inhibition of the AMPA receptor by perampanel (AMPA receptor GluA2/3; with 100 μM decanoic acid, subunit combination not specified): 3 fold; seizure activity ([2]; perampanel 100 nM, in the absence of decanoic acid): 95.6%; reduction of glutamate-induced currents ([3]; perampanel 20 μM): 54.3%

For `CCCCCCCCCC(=O)O` [decanoic acid], which “average concentration of decanoic acid in the brain” value [4] is on record?
The value was “around 110 μM”.

And the pIC50 (AMPA receptor GluA1/2; in the absence of perampanel, read-out: decanoic acid IC50 for GluA1/2)?
Its pIC50 is 3.04.

What about the pIC50 (AMPA receptor GluA1/2; in the presence of 1 μM perampanel, read-out: decanoic acid IC50 for GluA1/2) of the same compound?
The pIC50 was 3.68.

What about the pIC50 (AMPA receptor GluA1/2; in the presence of 4 μM perampanel, read-out: decanoic acid IC50 for GluA1/2) of the same compound?
Its pIC50 is 4.05.

And the “average concentration of decanoic acid in peripheral blood” value [5]?
The value was 157 µM.

What about the “reduction of glutamate-induced currents” value ([1]; decanoic acid 1 mM) of the same compound?
The value was 74.5%.

What about the “ratio of decanoic acid in brain to blood plasma” value [6] of the same compound?
Its value is “around 0.7”.

And the pIC50 (AMPA receptor GluA2/3; in the absence of perampanel, read-out: decanoic acid IC50 for GluA2/3)?
Its pIC50 is 3.28.

And the pIC50 (AMPA receptor GluA2/3; in the presence of 1 μM perampanel, read-out: decanoic acid IC50 for GluA2/3)?
The pIC50 was 4.00.

What about the pIC50 (AMPA receptor GluA2/3; in the presence of 4 μM perampanel, read-out: decanoic acid IC50 for GluA2/3) of the same compound?
Its pIC50 is 4.40.

And the pIC50 ([2]; at 100 nM perampanel)?
The pIC50 was 3.71.

And the pIC50 ([2]; at 500 nM perampanel)?
The pIC50 was 3.91.

And the pIC50 ([2]; without perampanel)?
The pIC50 was 3.45.

And the seizure activity ([2]; decanoic acid 10 μM combined with perampanel 100 nM)?
Its seizure activity is 76.8%.

What about the “seizure activity (baseline inhibition reduced to)” value ([2]; decanoic acid 10 μM with perampanel 500 nM) of the same compound?
The value was 69.6%.

What about the “concentration giving block of epileptiform activity” value ([2]; decanoic acid alone) of the same compound?
The value was 1000 µM.

And the “concentration at which epileptiform activity was reduced” value ([2]; decanoic acid alone, increasing concentrations)?
The value was 300 µM.

What about the “concentration giving block in seizure activity” value ([2]; decanoic acid combined with perampanel 100 nM) of the same compound?
The value was 600 µM.

And the “reduction of glutamate-induced currents” value ([3]; decanoic acid 1 mM)?
The value was 72.8%.
